Measured values taken from PMC4865847, “Putative histidine kinase inhibitors with antibacterial effect against multi-drug resistant clinical isolates identified by in vitro and in silico screens” (Scientific Reports, 2016).
pIC50: −log10 of the molar value. In brackets after ≈: the same amount, converted by molar mass. Read-outs that look alike come from different tables or passages of the source.

Columns and labels:
[1] = system: Escherichia coli; assay: Antibacterial susceptibility testing (MIC/MBC), E. coli; type: cell-based; details: Escherichia coli; for MIC: read-out: MIC E. coli CFT 073
Experimental: (§1) Minimal inhibitory concentrations (MICs) were determined following a standard double-dilution method. […] For S. pneumoniae MICs were determined by adapting the standard double-dilution method to anaerobic conditions and of this microorganism (use of Todd Hewitt Yeast extract with 200 U/mL of catalase and continuous monitoring of growth).

[2] = system: Staphylococcus aureus; assay: Antibacterial susceptibility testing (MIC/MBC), S. aureus; type: cell-based; details: Staphylococcus aureus; for MBC: DSM20231, read-out: MBC S. aureus DSM 20231
Experimental: as §1

[3] = target: T1, E. coli PhoR (PhoR^E) (Escherichia coli, UniProt P08400); assay: In vitro autophosphorylation kinase assay with γ-32P-ATP, PhoR^E; type: biochemical; details: for pIC50: autophosphorylation, one time point (30 sec), 10% DMSO; for inhibition at 2000 µM: 2 mM, 30 sec, compared to negative control
T1 construct: The catalytic portion (DHp and CA domain) of E. coli PhoR (PhoR^E); made in house; host or cells: E. coli RIL
Experimental: (§2) To evaluate the inhibitory capacity of selected hits from DSF, SBVS and LBSS in vitro autophosphorylation kinase assays with γ-^32P-ATP were performed as previously described. Ligands were dissolved in 100% DMSO. […] Controls lacking ligands contained an equal concentration of DMSO. Inhibition of autophosphorylation was determined by incubating 0.12 mg/ml (≈4 μM) HK and up to 20 mM fragment in kinase buffer (50 mM Tris HCl, pH 8.5, 50 mM KCl, 5 mM MgCl2, 0.5 mM EDTA and 0.1 mM DTT). Autophosporylation reactions were initiated by addition of 0.1 μCi/μl γ-^32P-ATP containing from 0.03 to 0.06 μM ATP (final concentrations). Autophosphorylation was quenched with 2xSDS-PAGE sample buffer supplemented with 50 mM EDTA. […] After electrophoresis, the bottoms of the gels were removed to lower the background from the unincorporated radiolabeled ATP. Gels were dried without staining on a Bio-Rad Gel Air drying system and the phosphorylated protein was quantified by phosphor-imaging. Prism GraphPad was used for curve fitting and statistical analysis.

[4] = system: Staphylococcus epidermidis; assay: Antibacterial susceptibility testing (MIC/MBC), S. epidermidis; type: cell-based; details: Staphylococcus epidermidis
Experimental: as §1

[5] = target: S. aureus PhoR (PhoR^S) (Staphylococcus aureus, UniProt Q2FXN7); assay: In vitro autophosphorylation kinase assay with γ-32P-ATP, PhoR^S; type: biochemical; details: for pIC50: autophosphorylation, one time point (30 sec), 10% DMSO; for inhibition at 2000 µM: read-out: inhibition of PhoR^S autophosphorylation
Experimental: To evaluate the inhibitory capacity of selected hits from DSF, SBVS and LBSS in vitro autophosphorylation kinase assays with γ-^32P-ATP were performed as previously described. Ligands were dissolved in 100% DMSO. […] Controls lacking ligands contained an equal concentration of DMSO. Inhibition of autophosphorylation was determined by incubating 0.12 mg/ml (≈4 μM) HK and up to 20 mM fragment in kinase buffer (50 mM Tris HCl, pH 8.5, 50 mM KCl, 5 mM MgCl2, 0.5 mM EDTA and 0.1 mM DTT). Autophosporylation reactions were initiated by addition of 0.1 μCi/μl γ-^32P-ATP containing from 0.03 to 0.06 μM ATP (final concentrations). Autophosphorylation was quenched with 2xSDS-PAGE sample buffer supplemented with 50 mM EDTA. Samples were applied without heating to 15% (w/v) Tris-glycine SDS-polyacrylamide gels. After electrophoresis, the bottoms of the gels were removed to lower the background from the unincorporated radiolabeled ATP. Gels were dried without staining on a Bio-Rad Gel Air drying system and the phosphorylated protein was quantified by phosphor-imaging. Prism GraphPad was used for curve fitting and statistical analysis.

[6] = target: T2, S. pneumoniae WalK (Streptococcus pneumoniae, UniProt Q8DPL8); assay: In vitro autophosphorylation kinase assay with γ-32P-ATP, WalK; type: biochemical; details: autophosphorylation, one time point (30 sec), 10% DMSO
T2 construct: WalK (amino acids from 208 to 449); N-terminal His6-3C site of vector pOPINF (own knowledge of the vector); made in house; host or cells: E. coli RIL
Experimental: as §2

[7] = DSM20231, strain DSM 20231, read-out: MIC S. aureus DSM 20231
[8] = DSM20044, strain DSM 20044, read-out: MIC S. epidermidis DSM 20044

S. aureus PhoR (PhoR^S), sequence (Q2FXN7 entry or part of it): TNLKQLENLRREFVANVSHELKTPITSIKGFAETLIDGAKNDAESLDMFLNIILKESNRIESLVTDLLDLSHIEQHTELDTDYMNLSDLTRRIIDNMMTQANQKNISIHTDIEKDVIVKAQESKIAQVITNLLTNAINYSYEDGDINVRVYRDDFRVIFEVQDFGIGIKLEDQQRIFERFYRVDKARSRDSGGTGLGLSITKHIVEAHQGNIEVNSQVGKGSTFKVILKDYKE
T1 sequence (P08400 210-425): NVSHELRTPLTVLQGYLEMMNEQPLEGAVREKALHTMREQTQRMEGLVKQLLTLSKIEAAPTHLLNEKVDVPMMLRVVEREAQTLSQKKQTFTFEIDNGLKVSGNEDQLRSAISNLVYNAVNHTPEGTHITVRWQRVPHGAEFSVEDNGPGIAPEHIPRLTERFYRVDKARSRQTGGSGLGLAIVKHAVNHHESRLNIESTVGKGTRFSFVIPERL
T2 sequence (Q8DPL8 208-449): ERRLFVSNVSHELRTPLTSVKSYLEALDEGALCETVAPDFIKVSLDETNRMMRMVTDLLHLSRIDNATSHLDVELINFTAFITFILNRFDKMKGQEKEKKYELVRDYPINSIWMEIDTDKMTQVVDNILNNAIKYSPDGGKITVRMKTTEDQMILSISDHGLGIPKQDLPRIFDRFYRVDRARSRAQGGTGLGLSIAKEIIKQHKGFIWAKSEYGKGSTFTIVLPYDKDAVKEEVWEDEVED

| Compound | MIC ([1]; strain CFT 073) [µg/mL] | MIC [2, 7] [µg/mL] | pIC50 ([3]; IC50 PhoR^E) | MIC [4, 8] [µg/mL] | pIC50 ([5]; IC50 PhoR^S) | other results |
| --- | --- | --- | --- | --- | --- | --- |
| CC(=O)Nc1cccc(S(=O)(=O)c2cccc(NC(C)=O)c2)c1 [S1.9] | > 500 | > 500 | < 2.70 | > 500 | < 2.70 | – |
| CC(=O)Nc1cccc(OCc2cccc([N+](=O)[O-])c2)c1 [S1.17] | > 500 | > 500 | < 2.70 | > 500 | < 2.70 | – |
| CC(C)(C)c1ccc(NS(=O)(=O)c2ccc(N)cc2)cc1 [S1.15] | > 500 | > 500 | < 2.70 | > 500 | – | inhibition at 2000 µM [3]: > 40%; pIC50 ([5]; read-out: IC50 PhoR^S): > 2.70; inhibition at 2000 µM [5]: > 75% |
| CC(=O)Nc1cccc(OCc2ccc([N+](=O)[O-])cc2)c1 [S1.8] | > 500 | > 500 | < 2.70 | > 500 | < 2.70 | – |
| O=c1c2ccccc2[nH]c2ccc(O)cc12 [F2.2] | > 500 | > 500 | > 2.70 | > 500 | – | pIC50 ([6]; IC50 WalK): < 2.70; inhibition at 2000 µM [3]: > 50% |
| CC(=O)Nc1ccc(NC(=O)c2cccc(F)c2)cc1 [S1.3] | > 500 | > 500 | < 2.70 | > 500 | < 2.70 | – |
| COc1ccc(-c2csc(N)n2)cc1OC [F1.9] | > 500 | > 500 | < 2.70 | > 500 | – | pIC50 ([6]; IC50 WalK): < 2.70 |
| Nc1ncc(-c2ccc(Br)cc2)s1 [F1.4] | > 500 | > 500 | < 2.70 | > 500 | – | pIC50 ([6]; IC50 WalK): < 2.70 |
| COc1cc(NCc2ccccc2)ccc1NC(C)=O [S1.18] | > 500 | > 500 | < 2.70 | > 500 | < 2.70 | – |
| O=C(NCc1cccc(Cl)c1)Nc1ccccc1 [S1.22] | > 500 | > 500 | < 2.70 | > 500 | < 2.70 | – |
| c1ccc2[nH]ccc2c1 [F2.7] | – | – | – | – | – | MIC [1]: 500 µg/mL (≈ 4270 µM); pIC50 ([6]; read-out: IC50 WalK): < 2.70; MBC [2]: > 500 µg/mL; MIC ([2]; DSM20231, read-out: MIC S. aureus DSM 20231): 500 µg/mL (≈ 4270 µM); pIC50 ([3]; read-out: IC50 PhoR^E): < 2.70; MIC ([4]; DSM20044, read-out: MIC S. epidermidis DSM 20044): > 500 µg/mL |
| CCN(Cc1ccc(C(=O)OC)cc1)c1cccc(NC(C)=O)c1 [S1.1] | > 500 | > 500 | < 2.70 | > 500 | < 2.70 | – |
| CC(=O)Nc1ccc(C(O)c2ccc(NC(C)=O)cc2)cc1 [S1.6] | > 500 | > 500 | < 2.70 | > 500 | < 2.70 | – |
| CC(=O)Nc1cccc(C=Cc2ccc([N+](=O)[O-])cc2)c1 [S1.11] | > 500 | > 500 | > 2.70 | > 500 | – | inhibition at 2000 µM [3]: > 75%; pIC50 ([5]; read-out: IC50 PhoR^S): > 2.70; inhibition at 2000 µM [5]: > 75% |
| Nc1nc(-c2ccc(O)cc2)cs1 [F1.1] | – | – | – | – | – | MBC ([1]; read-out: MBC E. coli CFT 073): > 500 µg/mL; pIC50 ([6]; read-out: IC50 WalK): < 2.70; MBC [2]: > 500 µg/mL; pIC50 ([3]; read-out: IC50 PhoR^E): < 2.70 |
| CC(=O)NC(Cc1ccccc1)C(=O)Nc1cccc(C)c1 (stereo not drawn) [S1.19] | > 500 | > 500 | < 2.70 | > 500 | < 2.70 | – |
| Nc1nnc(-c2ccc(Br)cc2)o1 [F1.5] | > 500 | > 500 | < 2.70 | > 500 | – | pIC50 ([6]; IC50 WalK): < 2.70 |
